Results: patent publication US20080171768A1, “Pharmaceutical Composition Containing An Anti Parasitic Agent And Active Ingredient Selected From Carveol, Thymol, Eugenol, Borneol, Carvacrol, Alpha-Ionone, Or Beta-Ionone” (ADVANCED SCIENTIFIC DEVELOPMENTS, priority 2005, published 2008)
Read-outs that look alike come from different tables or passages of the source. Blank lines part the entries; values can stand above or below the molecule they belong to.

Tests used:
[1] = test system: Eimeria acervulina and Eimeria tenella; assay: Treatment of subclinical coccidiosis in broiler chickens (in vivo); design: species or system Eimeria acervulina and Eimeria tenella (in chickens); conditions: infected chickens, 5 days treatment in feed (salinomycin 40 mg/kg feed, carvacrol or thymol 75 mg/kg feed); for Weight gain (grams ± SD) Day 5: day 5, immediately after stopping treatment; for Weight gain (grams ± SD) Day 15: day 15, 10 days after stopping treatment
Procedure: These in vivo tests were designed to measure weight gain, consumption index, daily oocyst output and appearance of fecal matter in treated chickens.
The experiment was carried out on 200 chickens aged 22 days (average weight 620 g) afflicted with subclinical coccidiosis sampled from a group of 10,000 broiler chickens.
Subclinical coccidiosis was diagnosed on day 20. The mean oocyst output in the experimental animals was 50,000 oocysts/g (OPG).
The antiparasitic agent used is salinomycin, one of the most widely used antiparasitics for this type of infection. Two antiparasitic pharmaceutical compositions according to the invention were prepared by mixing salinomycin at different concentrations with carvacrol or thymol at a sub-inhibitory concentration of 75 mg/kg of feed.
Antiparasitic activity was also determined either with salinomycin alone, or with carvacrol alone or thymol alone. Antiparasitic activity was measured according to the conventional criteria for this type of infection: weight gain, consumption index, daily oocyst output and appearance of fecal matter. These criteria were measured on day 5 (immediately after stopping treatment) and on day 15 (10 days after stopping treatment).
The sample was subdivided into seven groups of […]:
Group 1: Uninfected, untreated animals (healthy controls). Mean weight on day 22: 750 g.
Group 2: Infected, untreated animals (affection controls).
Group 3: Infected animals treated with salinomycin at a dose of 40 mg/kg of feed. Group 4: Infected animals treated with carvacrol 75 mg/kg of feed.
Group 5: Infected animals treated with thymol 75 mg/kg of feed.
Group 6: Infected animals treated with salinomycin 40 mg/kg of feed potentiated by carvacrol 75 mg/kg of feed.
Group 7: Infected animals treated with salinomycin 40 mg/kg of feed potentiated by thymol 75 mg/kg of feed.
The antiparasitic agents used were mixed with this feed during the five days of treatment. The animals had free access to the feed throughout the experiment.

[2] = test system: Plasmodium falciparum clones 3d7, HB3, Dd2 and 7G8; assay: In vitro IC50, growth of Plasmodium falciparum clones on human red blood cells (SybrGreen DNA fluorescence); type: cell-based
Procedure: The experiment was carried out with four clones (named 3d7, HB3, Dd2 and 7G8) of the malarial agent Plasmodium falciparum, a parasitic disease also known as malaria. These clones are laboratory reference models commonly used to screen drugs for antimalarial activity.
Plasmodium falciparum was grown on human red blood cells. The test was carried out in 96-well plates in which infected red blood cells (synchronized with sorbitol) were contacted with the different treatments for 72 hours at 37° C. in an incubator with controlled atmosphere (5% CO2, 1% O2, 94% N2). Growth of the pathogen was measured by quantifying fluorescent DNA in the presence of SybrGreen.
An antiparasitic pharmaceutical composition according to the invention was prepared by mixing artesunate at different concentrations with carvacrol or eugenol at sub-inhibitory concentrations of 0.05 mM and 0.2 mM, respectively. […] This pharmaceutical composition according to the invention was named artesunate P eugenol or artesunate P carvacrol, the letter P signifying potentiation by eugenol or carvacrol.
In each case, antiparasitic activity was determined either with artesunate alone, or with carvacrol alone, or with eugenol alone, or with the composition of the invention.
The IC50 was determined with Harald Noedl's HN NonLin V1.051 Beta software based on the fluorescence values.
The experiment was carried out with the same Plasmodium falciparum clones as in example 2 (3d7, HB3, Dd2 and 7G8), the first two clones (3d7 and HB3) being susceptible and the other two (Dd2 and 7G8) being resistant to chloroquine.
Chloroquine, one of the most widely used antiparasitic agents, is tested. […] This pharmaceutical composition was named chloroquine P eugenol, the letter P signifying potentiation by eugenol.
In each case, antiparasitic activity was determined either with chloroquine alone, or with eugenol alone, or with the composition of the invention.
The IC50 was determined as in example 2.
The experiment was carried out with the same Plasmodium falciparum clones as in examples 2 and 3 (3d7, HB3, Dd2 and 7G8), the first two clones (3d7 and HB3) being susceptible and the other two (Dd2 and 7G8) being resistant to […].
Mefloquine, one of the most widely used antiparasitic agents, is tested. […] This pharmaceutical composition according to the invention was named mefloquine P eugenol, the letter P signifying potentiation by eugenol.
In each case, antiparasitic activity was determined either with mefloquine alone, or with eugenol alone, or with the composition of the invention.
The IC50 was determined as in examples 2 and 3.

Plasmodium berghei ANKA = assay: Cerebral malaria model, CBA/J mice infected with Plasmodium berghei ANKA (in vivo)
Source text: Here, the intrinsic antimalarial activity of carvacrol as well as artesunate potentiated by carvacrol was studied in vivo in an animal model of cerebral malaria (neuromalaria). The reference model for this type of infection makes use of CBA/J mice infected with Plasmodium berghei ANKA, an agent that causes cerebral malaria.
The intraperitoneal route was used for infection and treatment of the mice.
In this model, the onset of the first clinical signs occurs by day 4 or 5 (D4 or D5) after infection. Animals presenting these signs die in the next two days (D6 and D7).
The test was carried out on five groups of 10 mice as follows:
Group 1: Uninfected, untreated controls
Group 2: Infected mice treated with carvacrol (60 mg/kg of weight) twice a day every 12 hours
Group 3: Infected mice treated with carvacrol (40 mg/kg of weight) twice a day every 12 hours
Group 4: Infected mice treated with artesunate (40 mg/kg of weight) once a day
Group 5: Infected mice treated with artesunate (40 mg/kg of weight) once a day and with carvacrol (40 mg/kg of weight) twice a day.
Treatment commenced five days after infection (D5) and continued for three days (D5, D6, D7).

[3] = artesunate 40 mg/kg once a day, intraperitoneal, D5-D7
[4] = carvacrol 40 mg/kg twice a day (80 mg/kg/24 h), intraperitoneal, D5-D7
[5] = carvacrol 60 mg/kg twice a day (120 mg/kg/24 h), intraperitoneal, D5-D7

Compound: CC[C@@H](C(=O)[C@@H](C)[C@@H](O)[C@H](C)[C@@H]1O[C@@H]([C@@H](CC)C(=O)O)CC[C@@H]1C)[C@H]1O[C@]2(C=C[C@@H](O)[C@]3(CC[C@@](C)([C@H]4CC[C@](O)(CC)[C@H](C)O4)O3)O2)[C@H](C)C[C@@H]1C [Salinomycin, salinomycin, reference compound]
Consumption index Day 5 [1]: 2.2
Fecal appearance Day 5 [1]: Diarrheal
Oocyst output (OPG ± SD) Day 5 [1]: 110,000 ± 6700 OPG
Weight gain (grams ± SD) Day 5 [1]: 182 ± 28 grams
Consumption index Day 15 [1]: 2.9
Fecal appearance Day 15 [1]: Diarrheal
Oocyst output (OPG ± SD) Day 15 [1]: 164,000 ± 7200 OPG
Weight gain (grams ± SD) Day 15 [1]: 835 ± 44 grams

Compound: Cc1ccc(C(C)C)c(O)c1 [Thymol, thymol]
Consumption index Day 5 [1]: 2.45
Fecal appearance Day 5 [1]: Diarrheal
Oocyst output (OPG ± SD) Day 5 [1]: 98,000 ± 4200 OPG
Weight gain (grams ± SD) Day 5 [1]: 180 ± 52 grams
Consumption index Day 15 [1]: 3.3
Fecal appearance Day 15 [1]: Diarrheal
Oocyst output (OPG ± SD) Day 15 [1]: 136,000 ± 6500 OPG
Weight gain (grams ± SD) Day 15 [1]: 840 ± 45 grams

Compound: C[C@H]1[C@H](OC(=O)CCC(=O)O)O[C@@H]2O[C@@]3(C)CC[C@H]4[C@H](C)CC[C@@H]1[C@@]24OO3 [artesunate]
IC50 ([2]; Plasmodium falciparum, Erythrocyte, 72 h, read-out: IC50 artesunate alone, Clone 3d7): 0.00214 µM
IC50 ([2]; Plasmodium falciparum, Erythrocyte, 72 h, read-out: IC50 artesunate alone, Clone 7G8): 0.001 µM
IC50 ([2]; Plasmodium falciparum, Erythrocyte, 72 h, read-out: IC50 artesunate alone, Clone Dd2): 0.00266 µM
IC50 ([2]; Plasmodium falciparum, Erythrocyte, 72 h, read-out: IC50 artesunate alone, Clone HB3): 0.00228 µM
IC50 ([2]; read-out: IC50 artesunate alone, Clone 7G8, 72 hours): 0.00125 µM
% mortality (Plasmodium berghei ANKA; [3]): 100%
Survival time of animals that died (Plasmodium berghei ANKA; [3]): 7 days
protection of treated animals (in words) (Plasmodium berghei ANKA; artesunate alone 40 mg/kg/24 h): does not provide any protection

Compound: Cc1ccc(C(C)C)cc1O [carvacrol]
Consumption index Day 5 [1]: 2.4
Fecal appearance Day 5 [1]: Diarrheal
Oocyst output (OPG ± SD) Day 5 [1]: 105,000 ± 5900 OPG
Weight gain (grams ± SD) Day 5 [1]: 176 ± 32 grams
Consumption index Day 15 [1]: 3
Fecal appearance Day 15 [1]: Diarrheal
Oocyst output (OPG ± SD) Day 15 [1]: 147,000 ± 4300 OPG
Weight gain (grams ± SD) Day 15 [1]: 812 ± 51 grams
IC50 ([2]; Plasmodium falciparum, Erythrocyte, 72 h, read-out: IC50 carvacrol alone, Clone 3d7): 330 µM
IC50 ([2]; Plasmodium falciparum, Erythrocyte, 72 h, read-out: IC50 carvacrol alone, Clone 7G8): 110 µM
IC50 ([2]; Plasmodium falciparum, Erythrocyte, 72 h, read-out: IC50 carvacrol alone, Clone Dd2): 160 µM
IC50 ([2]; Plasmodium falciparum, Erythrocyte, 72 h, read-out: IC50 carvacrol alone, Clone HB3): 220 µM
protection of treated animals (in words) (Plasmodium berghei ANKA; carvacrol 40 mg/kg twice a day (80 mg/kg/24 h)): does not afford any protection
% mortality (Plasmodium berghei ANKA; [4]): 100%
Survival time of animals that died (Plasmodium berghei ANKA; [4]): 7.5 days
% survivor at D12 (Plasmodium berghei ANKA; [5]): 80%
Survival time of animals that died (Plasmodium berghei ANKA; [5]): 7.5 days
% mortality (Plasmodium berghei ANKA; carvacrol 60 mg/kg twice a day (120 mg/kg/24 h), intraperitoneal, D5-D7 after infection): 20%

Compound: CCN(CC)CCCC(C)Nc1ccnc2cc(Cl)ccc12 (stereo not drawn) [chloroquine]
IC50 ([2]; Plasmodium falciparum, Erythrocyte, 72 h, read-out: IC50 chloroquine alone, Clone 3d7 (susceptible to chloroquine)): 0.0223 µM
IC50 ([2]; Plasmodium falciparum, Erythrocyte, 72 h, read-out: IC50 chloroquine alone, Clone 7G8 (resistant to chloroquine)): 0.445 µM
IC50 ([2]; Plasmodium falciparum, Erythrocyte, 72 h, read-out: IC50 chloroquine alone, Clone Dd2 (resistant to chloroquine)): 0.494 µM
IC50 ([2]; Plasmodium falciparum, Erythrocyte, 72 h, read-out: IC50 chloroquine alone, Clone HB3 (susceptible to chloroquine)): 0.0371 µM

Compound: C=CCc1ccc(O)c(OC)c1 [eugenol]
IC50 ([2]; Plasmodium falciparum, Erythrocyte, 72 h, read-out: IC50 eugenol alone, Clone 3d7): 1250 µM
IC50 ([2]; Plasmodium falciparum, Erythrocyte, 72 h, read-out: IC50 eugenol alone, Clone 7G8): 400 µM
IC50 ([2]; Plasmodium falciparum, Erythrocyte, 72 h, read-out: IC50 eugenol alone, Clone Dd2): 660 µM
IC50 ([2]; Plasmodium falciparum, Erythrocyte, 72 h, read-out: IC50 eugenol alone, Clone HB3): 660 µM

IC50 ([2]; Plasmodium falciparum, Erythrocyte, 72 h, Clone 3d7 (susceptible to mefloquine), read-out: IC50 mefloquine alone): 0.00883 µM
IC50 ([2]; Plasmodium falciparum, Erythrocyte, 72 h, Clone 7G8 (resistant to mefloquine), read-out: IC50 mefloquine alone): 0.0153 µM
IC50 ([2]; Plasmodium falciparum, Erythrocyte, 72 h, Clone Dd2 (resistant to mefloquine), read-out: IC50 mefloquine alone): 0.0338 µM
IC50 ([2]; Plasmodium falciparum, Erythrocyte, 72 h, Clone HB3 (susceptible to mefloquine), read-out: IC50 mefloquine alone): 0.00896 µM
Compound: OC(c1cc(C(F)(F)F)nc2c(C(F)(F)F)cccc12)C1CCCCN1 (stereo not drawn) [mefloquine]
